Measured values: patent US10253185B2, “Fluorogenic pH-sensitive dyes and their methods of use (II)” (LIFE TECHNOLOGIES CORPORATION, priority 2012, dated 2019)

What was measured:
cells = assay: Intracellular pH response of dye-loaded cells under perfusion with pH standards (nigericin/valinomycin); type: cell-based; conditions: 5 μM loading; potassium LCIS pH standards 7.4, 7.2, 6.5, 6.0; nigericin and valinomycin 10 μM each
Procedure: 10 mL loading buffer, Compound (4): 10 μL Compound (4) from a 5 mM DMSO stock was added to 100 μL Powerload and mixed. 10 mL LCIS was added to this solution for final concentration of Compound (4) of 5 μM.
Cells were cultured on 35 mm MatTek glass bottom dishes. For loading, cells were rinsed 1× with LCIS and replaced with loading buffer described above. Cells were incubated at 37° C. for 60 minutes, then rinsed 2× with LCIS and imaged with standard TRITC or FITC filter sets. (see FIG. 5).
Cells were cultured and loaded as described above with Compound (4). This solution was removed from the cells and replaced with potassium LCIS pH 7.4 standard and imaging experiments begun with cells under constant perfusion by potassium LCIS pH standards of pH 7.4, 7.2, 6.5, and 6.0. […] (Nigericin and valinomycin added at 10 μM each from DMSO stock.) Images of Compound (4) AM loaded cells at pH 7.4 and 6.0 are shown in FIG. 6. Functional kinetic responses from individually selected cells in the sample are shown in FIG. 7 as the pH was changed from 7.4 to 6.0 and back.

[1] = system: J774.2 murine macrophages; assay: No-wash phagocytosis assay with E. coli bioparticles conjugated to pH-sensitive dye; type: cell-based; conditions: E. coli bioparticle-dye conjugates, J774.2 macrophages
Excerpt: Certain embodiments provide a no-wash, no-quench assay for phagocytosis that is based on fluorogenic bioparticles comprising the pH-sensitive fluorescent dye compounds provided herein. Current protocols for measuring phagocytosis that use fluorescent bioparticles, require a trypan blue quenching step and several washing steps. These steps can introduce significant variability in the assay. To address this issue, provided herein is a no-wash phagocytosis kit, using E. coli bioparticles conjugated to a pH-sensitive fluorescent dye as described herein. These bioparticle conjugates are weakly fluorescent at extracellular pH. […] The pH-sensitive fluorescent bioparticles described herein may be used in plate based, as well as imaging and flow cytometry assays of phagocytosis.

Compound | signal from the dye inside of the cells as external pH changed (cells) | uptake of the bioparticles (phagocytosis) [1]
CCN(CCCC(=O)NCCCCC(C(=O)OCOC(C)=O)N(CC(=O)OCOC(C)=O)CC(=O)OCOC(C)=O)c1cc(OC)c(-c2c3ccc(=[N+](C)C)cc-3oc3cc(N(C)C)ccc23)cc1N(C)C (centres unmarked) [Compound (4), N-(9-(4-((8-(2-(acetoxymethoxy)-2-oxoethyl)-9-((acetoxymethoxy)carbonyl)-2,6,15-trioxo-3,5-dioxa-8,14-diazaoctadecan-18-yl)(ethyl)amino)-5-(dimethylamino)-2-methoxyphenyl)-6-(dimethylamino)-3H-xanthen-3-ylidene)-N-methylmethanaminium] | the signal from the dye inside of the cells changed | –
cytochalaisin D | – | potently inhibited
